Reference: patent US10214546B2, “Btk inhibitors” (MERCK SHARP & DOHME CORP., priority 2014, dated 2019)
Like-named read-outs stand apart in the source and are kept apart here.

How the values were obtained:
[1] = biological target: BTK enzyme (recombinant full-length BTK, hBTK) (Homo sapiens (Human), UniProt Q06187); test: BTK enzymatic activity LANCE TR-FRET assay; type: biochemical; details: 50 pM hBTK, 25 μM ATP, 2 μM biotin-A5-peptide; compound range 1 μM to 0.017 nM; read-out: BTK binding IC50
[2] = tested on: adenosine uptake into HeLa cells; test: [3H]Adenosine uptake assay in HeLa cells; type: cell-based; details: [3H]adenosine accumulation in HeLa cells, compound range 10 μM to 0.032 nM, read-out: ADU inhibition IC50
In short: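 HeLa cells in HBSS + 5% FBS were preincubated 30 min at ambient temperature with compound (ten-point 1:3 series, 10 µM–[…] final), then given [3H]adenosine (added as a 500 nM solution) for 60 min. Cell-associated label was read by scintillating-plate proximity counting; IC50 from 4-parameter fit of cps versus log concentration.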

Chain of BTK enzyme (recombinant full-length BTK, hBTK) (Q06187 whole entry): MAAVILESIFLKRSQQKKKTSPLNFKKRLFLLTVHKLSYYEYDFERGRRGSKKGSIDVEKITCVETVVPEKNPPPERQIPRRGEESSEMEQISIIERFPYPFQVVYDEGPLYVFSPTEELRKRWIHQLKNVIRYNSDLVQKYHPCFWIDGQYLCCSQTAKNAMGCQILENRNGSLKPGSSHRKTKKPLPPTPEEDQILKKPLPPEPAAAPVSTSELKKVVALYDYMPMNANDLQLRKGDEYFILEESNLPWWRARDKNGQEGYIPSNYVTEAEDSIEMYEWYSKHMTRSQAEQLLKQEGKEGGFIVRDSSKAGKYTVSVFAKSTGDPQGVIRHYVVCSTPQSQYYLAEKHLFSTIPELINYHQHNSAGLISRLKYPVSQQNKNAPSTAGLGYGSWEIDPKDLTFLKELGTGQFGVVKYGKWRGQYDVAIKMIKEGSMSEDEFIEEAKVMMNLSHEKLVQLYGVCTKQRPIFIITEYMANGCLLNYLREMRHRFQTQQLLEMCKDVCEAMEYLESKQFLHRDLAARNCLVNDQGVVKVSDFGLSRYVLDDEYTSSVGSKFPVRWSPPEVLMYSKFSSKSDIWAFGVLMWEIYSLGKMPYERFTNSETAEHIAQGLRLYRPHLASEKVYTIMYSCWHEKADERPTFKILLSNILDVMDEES

SMILES	IC50 [1] [nM]	IC50 [2] [nM]	IC50 ([2]; Homo sapiens, HeLa) [nM]
CC(O)(c1cccc(C(F)(F)F)c1)c1ccc(-c2nc([C@@H]3CC[C@H]4CCC(=O)N4C3)n3c(Cl)cnc(N)c23)c(F)c1 (stereo partly drawn) [Example 190, (6R,8aS)-6-[8-amino-5-chloro-1-(2-fluoro-4-{1-hydroxy-1-[3-(trifluoromethyl)phenyl]ethyl}phenyl)imidazo [1,5-a]pyrazin-3-yl]hexahydroindolizin-3(2H)-one]	310	316	–
CC(O)(c1cccc(C(F)(F)F)c1)c1ccc(-c2nc([C@@H]3CC[C@@H]4N(C3)C(=O)CC4(C)C)n3ccnc(N)c23)c(F)c1 (stereo partly drawn) [Example 191, (6R,8aS)-6-[8-amino-1-(2-fluoro-4-{1-hydroxy-1-[3-(trifluoromethyl)phenyl]ethyl}phenyl)imidazo [1,5-a]pyrazin-3-yl]-1,1-dimethylhexahydroindolizin-3(2H)-one]	36.9	431	–
CC(O)(c1cccc(C(F)F)c1)c1ccc(-c2nc([C@@H]3CC[C@H]4CCC(=O)N4C3)n3ccnc(N)c23)c(F)c1 (stereo partly drawn) [Example 192, (6R,8aS)-6-(8-amino-1-(4-{1-[3-(difluoromethyl)phenyl]-1-hydroxyethyl}-2-fluorophenyl)imidazo[1,5-a]pyrazin-3-yl]hexahydroindolizin-3(2H)-one]	110	522	–
CC(O)(c1cccc(C(F)(F)F)c1)c1ccc(-c2nc([C@@H]3CC[C@H]4CCC(=O)N4C3)n3c(Cl)cnc(N)c23)c(F)c1 (stereo partly drawn) [Example 193, (6R,8aS)-6-[8-amino-5-chloro-1-(2-fluoro-4-{1-hydroxy-1-[3-(trifluoromethyl)phenyl]ethyl}phenyl)imidazo [1,5-a]pyrazin-3-yl]hexahydroindolizin-3(2H)-one]	1.2	1860	–
CC(O)(c1cccc(C(F)(F)F)c1)c1ccc(-c2nc([C@@H]3CC[C@@H]4N(C3)C(=O)CC4(C)C)n3ccnc(N)c23)c(F)c1 (stereo partly drawn) [Example 194, (6R,8aS)-6-[8-amino-1-(2-fluoro-4-{1-hydroxy-1-[3-(trifluoromethyl)phenyl]ethyl}phenyl)imidazo [1,5-a]pyrazin-3-yl]-1,1-dimethylhexahydroindolizin-3(2H)-one]	1.1	1300	–
CC(O)(c1cccc(C(F)F)c1)c1ccc(-c2nc([C@@H]3CC[C@H]4CCC(=O)N4C3)n3ccnc(N)c23)c(F)c1 (stereo partly shown) [Example 195]	0.33	3500	–
CC1(C)C[C@@H]2CC[C@@H](c3nc(-c4ccc(C(C)(O)c5cccc(C(F)(F)F)c5)cc4F)c4c(N)nccn34)CN2C1=O (stereo partly drawn) [Example 196, (6R,8aS)-6-[8-amino-1-(2-fluoro-4-{1-hydroxy-1-[3-(trifluoromethyl)pheyl]ethyl}phenyl)imidazo [1,5-a)pyrazin-3-yl]-2,2-dimethylhexahydroindolizin-3(2H)-one]	500	369	–
CC1(C)C[C@@H]2CC[C@@H](c3nc(-c4ccc(C(C)(O)c5cccc(C(F)(F)F)c5)cc4F)c4c(N)nccn34)CN2C1=O (stereo partly drawn) [Example 197, (6R,8aS)-6-[8-amino-1-(2-fluoro-4-{1-hydroxy-1-[3-(trifluoromethyl)phenyl]ethyl}phenyl)imidazo [1,5-a]pyrazin-3-yl]-2,2-dimethylhexahydroindolizin-3(2H)-one]	2.5	3490	–
CC1(C)C[C@@H]2CC[C@@H](c3nc(-c4ccc([C@@](C)(O)c5cccc(C(F)(F)F)c5)cc4)c4c(N)ncc(F)n34)CN2C1=O [Example 198, (6R,8aS)-6-[8-amino-5-fluoro-1-(4-{(1R)-1-hydroxy-1-[3-(trifluoromethyl)phenyl]ethyl}phenyl)imidazo [1,5-a]pyrazin-3-yl]-2,2-dimethylhexahydroindolizin-3(2H)-one]	7.1	–	6850
C[C@@](O)(c1ccc(-c2nc([C@@H]3CC[C@H]4CCC(=O)N4C3)n3c(F)cnc(N)c23)cc1)c1cccc(C(F)F)c1 [Example 199, (6R,8aS)-6-(8-amino-1-(4-{(1R)-1-[3-(difluoromethyl)phenyl]-1-hydroxyethyl}phenyl)-5-fluoroimidazo[1,5-a]pyrazin-3-yl]hexahydroindolizin-3(2H)-one]	0.66	–	4500
CC(O)(c1cccc(C(F)F)c1)c1ccc(-c2nc([C@@H]3CC[C@@H]4N(C3)C(=O)CC4(C)C)n3ccnc(N)c23)c(F)c1 (stereo partly drawn) [Example 200, (6R,8aS)-6-[8-amino-1-(4-{1-[3-(difluoromethyl)phenyl]-1-hydroxyethyl}-2-fluorophenyl)imidazo[1,5-a]pyrazin-3-yl]-1,1-dimethylhexahydroindolizin-3(2H)-one]	53.8	230	–
CC1(C)C[C@@H]2CC[C@@H](c3nc(-c4ccc(C(C)(O)c5cccc(C(F)F)c5)cc4F)c4c(N)nccn34)CN2C1=O (stereo partly drawn) [Example 201, (6R,8aS)-6-[8-amino-1-(4-{1-[3-(difluoromethyl)phenyl]-1-hydroxyethyl}-2-fluorophenyl)imidazo[1,5-a]pyrazin-3-yl]-2,2-dimethylhexahydroindolizin-3(2H)-one]	42.2	418	–
CC(O)(c1cccc(C(F)F)c1)c1ccc(-c2nc([C@@H]3CC[C@@H]4N(C3)C(=O)CC4(C)C)n3ccnc(N)c23)c(F)c1 (stereo partly drawn) [Example 202, (6R,8aS)-6-(8-amino-1-(4-{1-[3-(difluoromethyl)phenyl]-1-hydroxyethyl}-2-fluorophenyl)imidazo[1,5-a]pyrazin-3-yl]-1,1-dimethylhexahydroindolizin-3(2H)-one]	0.16	1920	–
CC1(C)C[C@@H]2CC[C@@H](c3nc(-c4ccc(C(C)(O)c5cccc(C(F)F)c5)cc4F)c4c(N)nccn34)CN2C1=O (stereo partly drawn) [Example 203, (6R,8aS)-6-[8-amino-1-(4-{1-[3-(difluoromethyl)phenyl]-1-hydroxyethyl}-2-fluorophenyl)imidazo[1,5-a]pyrazin-3-yl]-2,2-dimethylhexahydroindolizin-3(2H)-one]	0.43	2260	–
CCOc1cc([C@@](C)(O)c2cccc(C(F)(F)F)c2)ccc1-c1nc([C@@H]2CC[C@H]3CCC(=O)N3C2)n2c(F)cnc(N)c12 [Example 204, (6R,8aS)-6-[8-amino-1-(2-ethoxy-4-{(1S)-1-hydroxy-1-[3-(trifluoromethyl)phenyl]ethyl}phenyl)-5-fluoroimidazo[1,5-a]pyrazin-3-yl]hexahydroindolizin-3(2H)-one]	2.2	–	5870
COc1cc(C(C)(O)c2cccc(C(F)(F)F)c2)ccc1-c1nc([C@@H]2CC[C@@H]3N(C2)C(=O)CC3(C)C)n2ccnc(N)c12 (stereo partly drawn) [Example 205, (6R,8aS)-6-[8-amino-1-(4-{1-hydroxy-1-[3-(trifluoromethyl)phenyl]ethyl}-2-methoxyphenyl)imidazo [1,5-a]pyrazin-3-yl]-1,1-dimethylhexahydroindolizin-3(2H)-one]	2	3500	–
COc1cc([C@@](C)(O)c2cccc(C(F)(F)F)c2)ccc1-c1nc([C@@H]2CC[C@H]3CC(C)(C)C(=O)N3C2)n2ccnc(N)c12 [Example 206, (6R,8aS)-6-[8-amino-1-(4-{(1S)-1-hydroxy-1-[3-(trifluoromethyl)phenyl]ethyl}-2-methoxyphenyl)imidazo [1,5-a]pyrazin-3-yl]-2,2-dimethylhexahydroindolizin-3(2H)-one]	3.8	–	5460
